Test results: patent US9394284B2, “Compounds act at multiple prostaglandin receptors giving a general anti-inflammatory response” (Allergan, Inc., priority 2010, dated 2016)

Columns and labels:
Strains TA 98 and TA 100 = experiment: Ames Test for mutagenicity; assay type: cell-based
Procedure: The compounds of FIGS. 3 and 3(a) were tested for mutagenicity by means of the Ames Test using Strains TA 98 and TA 100. The results were negative for both compounds.

[1] = tested on: allergic conjunctival itch; experiment: Allergic conjunctival itch model; assay type: in vivo; settings: FIGS. 10 and 11
Procedure: The compounds of this invention were tested according to the method described in “Characterization of Receptor Subtypes Involved in Prostanoid-Induced Conjunctival Pruritis and Their Role in Mediating Conjunctival Itching”, Vol. 279, No. 1, (JPET) 279, 137-142' 1996 for their efficacy in alleviating itch.

[2] = tested on: Dutch-belted pigmented rabbits; experiment: Arachidonate induced uveitis, anterior chamber leukocyte infiltration; assay type: in vivo, rabbit; settings: topical, concentrations of 0.1, 0.3 and 1%; sodium arachidonate challenge; FIG. 12
Procedure: Arachidonate Induced Uveitis
The rational for this protocol is to use arachidonate to directly produce ocular anterior segment uveitis, as opposed to using lipopolysaccharide (LPS) to indirectly release arachidonic acid.
Conscious male or female Dutch-belted pigmented rabbits weighing 2.5-3 kg were used for all in vivo slit lamp studies. Four animals were employed per test group. The right eye of each animal receiving 35 μl of topically administered test and the contralateral left eye of each animal receiving 35 μl of topically administered vehicle (t=0 minutes), followed 30 minutes later by treatment with 35 μl of 0.5% sodium arachidonate onto the surface of both eyes (t=30 minutes). Both eyes were examined by slit lamp 60 minutes following sodium arachdionate challenge (t=90 minutes) at 16× magnification under both white light and blue light illumination at an approximate angle of 45° through 1 mm and 5 mm slit widths.
Measurement of Anterior Chamber Leukocyte Infiltration:
Anterior chamber leukocyte infiltration was measured using a numerical scoring system to estimate cell number per field defined by a 5 mm slit width: 0=no cells per field (no response); 1=1-10 cells per field (mild); 2=11-20 cells per field (moderate); 3=[…] cells per field (severe); 4=>50 cells per filed (florid). Results are reported as the mean score value±S.E.M.

Row | Compound | mutagenicity (Ames Test) (Strains TA 98 and TA 100) | number of itch-scratch episodes [1] | anterior chamber leukocyte infiltration (uveitis model) [2]
1 | CCC(CC)COc1ccc(Br)cc1Cn1nc(CCC(=O)O)cc1C [Example 3, 3-{1-[5-Bromo-2-(2-ethyl-butoxy)-benzyl]-5-methyl-1H-pyrazol-3-yl}-propionic acid] | negative | significantly lower number of itch-scratch episodes | dose dependent response
2 | CCC(CC)COc1ccc(Cl)cc1Cn1nc(CCC(=O)O)cc1C [Example 3a, 3-{1-[5-Chloro-2-(2-ethyl-butoxy)-benzyl]-5-methyl-1H-pyrazol-3-yl}-propionic acid] | negative | significantly lower number of itch-scratch episodes | dose dependent response
